In the supplement of paper PMC4862054:

What was measured:
Assay in all cases: normalised viability (% of control), CellTiter-Blue; higher = more viable cells (about 100 = DMSO control)
CAL-85-1 [1] = conditions: 3000 nM; incubation time: 72 h
Method: (§1)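 DSRT, CellTiter-Blue viability, 72 h incubation. Signal is normalised to DMSO and benzethonium chloride controls. Value is the normalised response at dose 8.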

HDQ-P1 [2] = conditions: 3000 nM; incubation time: 72 h
Method: as §1

DU-4475 [3] = conditions: 3000 nM; incubation time: 72 h
Method: as §1

CAL-51 [4] = conditions: 3000 nM; incubation time: 72 h
Method: as §1

MDA-MB-453 [5] = conditions: 3000 nM; incubation time: 72 h
Method: as §1

CAL-148 [6] = conditions: 3000 nM; incubation time: 72 h
Method: as §1

CAL-85-1 [7] = conditions: 300 nM; incubation time: 72 h
Method: (§2)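 DSRT, CellTiter-Blue viability, 72 h incubation. Signal is normalised to DMSO and benzethonium chloride controls. Value is the normalised response at dose 6.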

MDA-MB-453 [8] = conditions: 300 nM; incubation time: 72 h
Method: as §2

CAL-148 [9] = conditions: 300 nM; incubation time: 72 h
Method: as §2

MDA-MB-468 = conditions: incubation time: 72 h
Procedure, shortened: (§3)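 Each entry is normalised viability at a single listed concentration within a series. It comes from breast cancer cell lines incubated 72 h with compound in 384-well plates, then measured with CellTiter-Blue fluorescence at 560/590 nm. Every plate was normalised between vehicle (100) and a positive kill control (0).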

BT-549 = conditions: incubation time: 72 h
Procedure, shortened: as §3

HCC1599 = conditions: incubation time: 72 h
Procedure, shortened: as §3

Hs578T = conditions: incubation time: 72 h
Procedure, shortened: as §3

CAL-85-1 [10] = conditions: incubation time: 72 h
Procedure, shortened: as §3

MDA-MB-436 = conditions: incubation time: 72 h
Procedure, shortened: as §3

SK-BR-3 = conditions: incubation time: 72 h
Procedure, shortened: as §3

HDQ-P1 [11] = conditions: incubation time: 72 h
Procedure, shortened: as §3

CAL-120 = conditions: incubation time: 72 h
Procedure, shortened: as §3

MFM-223 = conditions: incubation time: 72 h
Procedure, shortened: as §3

DU-4475 [12] = conditions: incubation time: 72 h
Procedure, shortened: as §3

HCC1143 = conditions: incubation time: 72 h
Procedure, shortened: as §3

BT-474 = conditions: incubation time: 72 h
Procedure, shortened: as §3

CAL-51 [13] = conditions: incubation time: 72 h
Procedure, shortened: as §3

MDA-MB-453 [14] = conditions: incubation time: 72 h
Procedure, shortened: as §3

CAL-148 [15] = conditions: incubation time: 72 h
Procedure, shortened: as §3

MDA-MB-231 = conditions: incubation time: 72 h
Procedure, shortened: as §3

COc1cc([C@@H]2c3cc4c(cc3[C@@H](O[C@@H]3O[C@@H]5CO[C@@H](c6cccs6)O[C@H]5[C@H](O)[C@H]3O)[C@H]3COC(=O)[C@H]23)OCO4)cc(OC)c1O [Teniposide]
Conditions | normalised viability [%]
CAL-51 [4] | 12.6
CAL-85-1 [1] | 41
CAL-85-1 [7] | 82.6
CAL-148 [6] | 9.86
CAL-148 [9] | 49.2
DU-4475 [3] | 2.12
HDQ-P1 [2] | 67.3
MDA-MB-453 [5] | 52.4
MDA-MB-453 [8] | 87.9

normalised viability [%]
Conditions | 3 nM | 10 nM | 30 nM | 100 nM | 1000 nM | 10000 nM
BT-474 | – | 118 | – | – | 113 | 50.8
BT-549 | – | 101 | – | – | 62.4 | 8.99
CAL-51 [13] | 98.2 | – | 78.2 | 43.4 | – | –
CAL-85-1 [10] | 103 | – | 89.7 | 94.5 | – | –
CAL-120 | – | 108 | – | – | 55.9 | 10.3
CAL-148 [15] | 103 | – | 69.3 | 61 | – | –
DU-4475 [12] | 82 | – | 67.8 | 28.1 | – | –
HCC1143 | – | 95.6 | – | – | 49.5 | 20.5
HCC1599 | – | 80.8 | – | – | 65.1 | 47.9
HDQ-P1 [11] | 113 | – | 113 | 104 | – | –
Hs578T | – | 109 | – | – | 94.5 | 12.2
MDA-MB-231 | – | 103 | – | – | 73.7 | 13.8
MDA-MB-436 | – | 92.1 | – | – | 55.1 | 23.6
MDA-MB-453 [14] | 135 | – | 92.8 | 109 | – | –
MDA-MB-468 | – | 99.1 | – | – | 54.2 | 15.6
MFM-223 | – | 99.3 | – | – | 84.4 | 13.1
SK-BR-3 | – | 105 | – | – | 20.9 | 7.84

COc1cc2nccc(Oc3ccc(NC(=O)Nc4cc(C)on4)c(Cl)c3)c2cc1OC [Tivozanib]
Conditions | normalised viability [%]
CAL-51 [4] | 80
CAL-85-1 [1] | 92.8
CAL-85-1 [7] | 102
CAL-148 [6] | 94
CAL-148 [9] | 95.9
DU-4475 [3] | 118
HDQ-P1 [2] | 67.6
MDA-MB-453 [5] | 51.9
MDA-MB-453 [8] | 95.8

normalised viability [%]
Conditions | 3 nM | 10 nM | 30 nM | 100 nM | 1000 nM | 10000 nM
BT-474 | – | 111 | – | – | 96.4 | 62.8
BT-549 | – | 82.7 | – | – | 97.6 | 36.5
CAL-51 [13] | 100 | – | 103 | 96.3 | – | –
CAL-85-1 [10] | 100 | – | 107 | 103 | – | –
CAL-120 | – | 101 | – | – | 98.7 | 47.8
CAL-148 [15] | 95 | – | 96.6 | 91.8 | – | –
DU-4475 [12] | 103 | – | 101 | 119 | – | –
HCC1143 | – | 111 | – | – | 105 | 94.5
HCC1599 | – | 121 | – | – | 98.8 | 79
HDQ-P1 [11] | 83.1 | – | 85.8 | 99.7 | – | –
Hs578T | – | 109 | – | – | 84.8 | 58.2
MDA-MB-231 | – | 87.8 | – | – | 78.1 | 43.1
MDA-MB-436 | – | 101 | – | – | 97.1 | 72.4
MDA-MB-453 [14] | 98 | – | 92.9 | 96.3 | – | –
MDA-MB-468 | – | 103 | – | – | 111 | 51.1
MFM-223 | – | 93.6 | – | – | 55.3 | 40.2
SK-BR-3 | – | 99.7 | – | – | 99.1 | 68.9
